What was measured:
[1] = Selectivity index, ratio of CC50 for african green monkey Vero cells to IC50 for Trypanosoma brucei brucei; assay type: functional
[2] = Inhibition of Trypanosoma cruzi cruzaine
Rhodesain = Rhodesain (Trypanosoma brucei rhodesiense, UniProt Q95PM0); assay: Inhibition of Trypanosoma brucei rhodesiense rhodesain
[3] = system: Trypanosoma brucei brucei; assay: Antitrypanosomal activity against Trypanosoma brucei brucei; assay type: functional, organism-based
[4] = molecular target: T1, Cathepsin B-like cysteine protease (Trypanosoma brucei, UniProt Q6R7Z5); assay: Inhibition of Trypanosoma brucei CatB
T1 sequence (Q6R7Z5 whole entry): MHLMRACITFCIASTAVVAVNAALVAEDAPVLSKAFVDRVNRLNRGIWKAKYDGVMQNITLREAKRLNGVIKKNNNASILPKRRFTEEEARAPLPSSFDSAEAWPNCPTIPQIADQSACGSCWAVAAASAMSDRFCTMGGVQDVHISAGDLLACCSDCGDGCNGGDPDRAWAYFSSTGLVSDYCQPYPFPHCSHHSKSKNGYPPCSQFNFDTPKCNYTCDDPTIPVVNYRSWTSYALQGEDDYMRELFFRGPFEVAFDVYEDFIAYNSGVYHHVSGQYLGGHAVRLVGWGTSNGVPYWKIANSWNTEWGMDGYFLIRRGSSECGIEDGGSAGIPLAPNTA

[5] = Cytotoxicity against african green monkey Vero cells; assay type: cell-based; conditions: chlorocebus sabaeus

Sequence of Rhodesain (Q95PM0 whole entry): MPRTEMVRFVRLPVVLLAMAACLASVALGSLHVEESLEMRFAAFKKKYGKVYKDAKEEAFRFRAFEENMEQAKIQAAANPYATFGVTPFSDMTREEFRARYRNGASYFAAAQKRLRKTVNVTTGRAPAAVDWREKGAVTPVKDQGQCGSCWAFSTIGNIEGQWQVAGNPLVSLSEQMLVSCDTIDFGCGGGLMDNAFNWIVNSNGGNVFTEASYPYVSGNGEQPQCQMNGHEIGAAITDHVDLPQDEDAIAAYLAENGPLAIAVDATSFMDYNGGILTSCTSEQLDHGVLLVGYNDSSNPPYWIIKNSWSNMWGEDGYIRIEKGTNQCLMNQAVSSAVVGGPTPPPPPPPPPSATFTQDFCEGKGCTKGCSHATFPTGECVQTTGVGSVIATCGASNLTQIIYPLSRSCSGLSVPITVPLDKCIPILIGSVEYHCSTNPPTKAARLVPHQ

Structure (SMILES)	Ratio CC50/IC50 [1]	IC50 [2] [µM]	IC50 (Rhodesain) [µM]	IC50 [3] [µM]	IC50 [4] [µM]	CC50 [5] [µM]
C[n+]1c2cc(Cl)ccc2c(NC2CCNCC2)c2[nH]c3ccccc3c21.[Cl-]	147	1	0.5	0.3	59	4.4
C[n+]1c2cc(Cl)ccc2c(NC2CCNCC2)c2[nH]c3cc(Cl)ccc3c21.[Cl-]	133	1	0.5	< 0.006	43	0.8
CCN(CC)CCCCNc1c2ccccc2[n+](C)c2c1[nH]c1ccccc12.[Cl-]	333	22	6	0.03	55	10
C[n+]1c2ccccc2c(Nc2ccc(N3CCCCC3)cc2)c2[nH]c3ccccc3c21.[Cl-]	60	3	1	0.08	76	4.8
CC(C)CN1CCC(Nc2c3ccccc3[n+](C)c3c2[nH]c2ccccc23)CC1.[Cl-]	100	8	2	0.05	26	5
C[n+]1c2ccccc2c(NC2CCN(Cc3ccccc3)CC2)c2[nH]c3ccccc3c21.[Cl-]	73	8	4	0.03	32	2.2
C[n+]1c2ccccc2c(NC2CCN(Cc3ccccc3O)CC2)c2[nH]c3ccccc3c21.[Cl-]	65	6	0.9	0.04	26	2.6
C[n+]1c2ccccc2c(Nc2ccccc2)c2[nH]c3ccccc3c21.[Cl-]	2	15	7	0.3	99	0.6
CCN(CC)Cc1ccc(Nc2c3ccccc3[n+](C)c3c2[nH]c2ccccc23)cc1O.[Cl-]	27	10	5	0.03	59	0.8
C[n+]1c2ccccc2c(Nc2cccnc2)c2[nH]c3ccccc3c21.[Cl-]	8.6	5	2	0.3	59	2.6
CCN(CC)CCCNc1c2ccc(Cl)cc2[n+](C)c2c1[nH]c1ccccc12.[Cl-]	65	2	0.5	0.02	64	1.3
CCN(CC)CCNc1c2ccccc2[n+](C)c2c1[nH]c1ccccc12.[Cl-]	3.1	23	11	0.9	95	2.8
CN(C)CCCNc1c2ccccc2[n+](C)c2c1[nH]c1ccccc12.[Cl-]	73	14	6	0.03	31	2.2
CCN(CC)CCCNc1c2ccccc2[n+](C)c2c1[nH]c1ccccc12.[Cl-]	40	34	13	0.05	97	2.5
CC(C)NCCCNc1c2ccccc2[n+](C)c2c1[nH]c1ccccc12.[Cl-]	30	42	26	0.1	62	3
CCN(CC)CCCC(C)Nc1c2ccccc2[n+](C)c2c1[nH]c1ccccc12.[Cl-] (stereo unspecified)	33	27	17	0.4	> 100	13
CC(CN(C)C)Nc1c2ccccc2[n+](C)c2c1[nH]c1ccccc12.[Cl-] (stereo unspecified)	3	10	5	1	> 100	3
C[n+]1c2ccccc2c(NC2CCNCC2)c2[nH]c3ccccc3c21.[Cl-]	6200	3	2	0.01	–	62
CN(C)CC(C)(C)CNc1c2ccccc2[n+](C)c2c1[nH]c1ccccc12.[Cl-]	10	26	19	0.3	62	3
C[n+]1c2ccccc2c(NCCCN2CCCCC2)c2[nH]c3ccccc3c21.[Cl-]	33	11	5	0.06	60	2
CN(C)CCNc1c2ccccc2[n+](C)c2c1[nH]c1ccccc12.[Cl-]	7.9	23	7	0.7	91	5.5
C[n+]1c2ccccc2cc2[n-]c3ccccc3c21.Cl [CRYPTOLEPINE HYDROCHLORIDE]	0.6	28	23	2	64	1.1

Reference: ChEMBL document CHEMBL2086347, “Antitrypanosomal and cysteine protease inhibitory activities of alkyldiamine cryptolepine derivatives” (Bioorg Med Chem Lett, 2012)
